Measurements from US11420976B2 (priority 2020, dated 2022).
Read-outs that look alike come from different tables or passages of the source.

Tested on: Human RSV-A (“Long” strain)
Assay: RSV-A assay (CPE, ATPlite readout in Hep-2 cells)
Assay type: cell-based
Details: human respiratory syncytial virus, read-out: Human RSV-A (“Long” strain) EC50
Description: Hep-2 cells, (originally derived from tumors grown in irradiated-cortisonised weanling rats that had been injected with epidermoid carcinoma tissue from a person's larynx, but later found to be indistinguishable from HeLa cells by PCR DNA analysis), were used for the culturing of genotype A, “Long” strain RSV. Flasks were inoculated with RSV and viral stocks were collected once cytopathic effect (CPE) was greater than 90%. Viral stocks in 25% sucrose media were snap frozen using liquid nitrogen to increase viral stability. Viral stock titers were quantified by tissue culture infectious dose 50% (TCID50) using 8,000 cells per well and 3-fold viral dilutions across a 96-well plate, cultured for 4 days. Viral stock titers were also quantified by a plaque forming unit assay, as described elsewhere.
Following extensive parameter testing, the final assay is run as follows: Hep-2 cells are seeded into the inner 60 wells of a 96-well plate at 8,000 cells per well in a volume of 50 μL using Growth Media (DMEM without phenol red, 1% L-Glut, 1% Penn/Strep, 1% nonessential amino acids, 10% heat-inactivated FBS). 2-fold serial dilutions of control and test compounds are added to the wells in duplicate in a total volume of 25 μL. Viral stock is then added to the wells at a multiplicity of infection (MOI) of 0.1 in a volume of 25 μL, bringing the total volume of each well to 100 μL. The MOI is calculated using the PFU/mL, or TCID50 if unavailable. Each 96-well plate has a control column of 6 wells with cells and virus but no compound (negative control, max CPE), a column with cells but no compound or virus (positive control, minimum CPE), and a column with no cells or virus or compound (background plate/reagent control). The control wells with cells but no virus are given an additional […], of growth media containing an equal quantity of sucrose as those wells receiving the viral stock in order to keep consistent in media and volume conditions. The outer wells of the plate are filled with 125 μL of moat media (DMEM, 1% Penn/Strep) to act as a thermal and evaporative moat around the test wells. Following a 5-day incubation period, the plates are read using ATPlite (50 uL added per well), which quantifies the amount of ATP (a measure of cell health) present in each well. Assay plates are read using the Envision luminometer. […] EC50 ranges are as follows: A<0.2 μM; B≥0.2 μM.

[1] = 120 h, Hep-2 cells, MOI 0.1, 5-day incubation, ATPlite

SMILES | EC50 [1] | EC50 (HEp-2, 120 h)
COc1cc(C(=O)NC[C@@](O)(c2cc3c(c(-c4ccc(F)cc4)n2)OC[C@@]3(N)C(F)(F)F)C(F)(F)F)ccc1OC1CC1 [Example 2, N—((R)-2-((R)-3-amino-7-(4-fluorophenyl)-3-(trifluoromethyl)-2,3-dihydrofuro[2,3-c]pyridin-5-yl)-3,3,3-trifluoro-2-hydroxypropyl)-4-cyclopropoxy-3-methoxybenzamide] | > 200 nM | –
COc1cc(C(=O)NC[C@](O)(c2cc3c(c(-c4ccc(F)cc4)n2)OC[C@@]3(N)C(F)(F)F)C(C)(C)C)ccc1OC1CC1 [Example 12, N—((S)-2-((R)-3-amino-7-(4-fluorophenyl)-3-(trifluoromethyl)-2,3-dihydrofuro[2,3-c]pyridin-5-yl)-2-hydroxy-3,3-dimethylbutyl)-4-cyclopropoxy-3-methoxybenzamide] | > 200 nM | –
COc1cc(C(=O)NC[C@](O)(c2cc3c(c(-c4ccc(F)cc4)n2)OC[C@@]3(NC(=O)CO)C(F)(F)F)C(F)(F)F)ccc1OC1CC1 [Example 14, 4-cyclopropoxy-3-methoxy-N—((S)-3,3,3-trifluoro-2-((R)-7-(4-fluorophenyl)-3-(2-hydroxyacetamido)-3-(trifluoromethyl)-2,3-dihydrofuro[2,3-c]pyridin-5-yl)-2-hydroxypropyl)benzamide] | < 200 nM | –
COC(=O)N[C@@]1(C(F)(F)F)COc2c1cc([C@@](C)(O)CNC(=O)c1ccc(OC3CC3)c(OC)c1)nc2-c1ccc(F)cc1 [Example 15, methyl ((R)-5-((S)-1-(4-cyclopropoxy-3-methoxybenzamido)-2-hydroxypropan-2-yl)-7-(4-fluorophenyl)-3-(trifluoromethyl)-2,3-dihydrofuro[2,3-c]pyridin-3-yl)carbamate] | – | < 200 nM
C[C@](O)(CNC(=O)c1cc(OC2CC2)c2ncccc2c1)c1cc2c(c(-c3ccc(F)cc3)n1)OC[C@@]2(N)C(F)(F)F [Example 16, N—((S)-2-((R)-3-amino-7-(4-fluorophenyl)-3-(trifluoromethyl)-2,3-dihydrofuro[2,3-c]pyridin-5-yl)-2-hydroxypropyl)-8-cyclopropoxyquinoline-6-carboxamide] | < 200 nM | –
COc1cc(C(=O)NC[C@](C)(O)c2cc3c(c(-c4ccc(F)cc4)n2)OC[C@@]3(N)C(F)(F)F)cc2cccnc12 [Example 17, N—((S)-2-((R)-3-amino-7-(4-fluorophenyl)-3-(trifluoromethyl)-2,3-dihydrofuro[2,3-c]pyridin-5-yl)-2-hydroxypropyl)-8-methoxyquinoline-6-carboxamide] | < 200 nM | –
C[C@](O)(CNC(=O)c1ccc(OC2CC2)c(-c2cccnc2)c1)c1cc2c(c(-c3ccc(F)cc3)n1)OC[C@@]2(N)C(F)(F)F [Example 18, N—((S)-2-((R)-3-amino-7-(4-fluorophenyl)-3-(trifluoromethyl)-2,3-dihydrofuro[2,3-c]pyridin-5-yl)-2-hydroxypropyl)-4-cyclopropoxy-3-(pyridin-3-yl)benzamide] | < 200 nM | –
COc1cc(C(=O)NC[C@](C)(O)c2cc3c(c(-c4ccc(F)cc4)n2)OC[C@@]3(NC(=N)NC#N)C(F)(F)F)ccc1OC1CC1 [Example 21, N—((S)-2-((R)-3-(3-cyanoguanidino)-7-(4-fluorophenyl)-3-(trifluoromethyl)-2,3-dihydrofuro[2,3-c]pyridin-5-yl)-2-hydroxypropyl)-4-cyclopropoxy-3-methoxybenzamide] | – | < 200 nM
COc1cc(C(=O)NC[C@](O)(c2cc3c(c(-c4ccc(F)cc4)n2)OC[C@@]3(N)C(F)(F)F)C(F)(F)F)ccc1OCCO [Example 31] | > 200 nM | –
COc1cc(C(=O)NC[C@@](O)(c2cc3c(c(-c4ccc(F)cc4)n2)OC[C@]3(N)C(F)(F)F)C(F)(F)F)ccc1OCCO [Example 32] | > 200 nM | –
COc1cc(C(=O)NC[C@](O)(c2cc3c(c(-c4ccc(F)cc4)n2)OC[C@]3(N)C(F)(F)F)C(F)(F)F)ccc1OCCO [Example 33] | > 200 nM | –
COc1ccc(C(=O)NC[C@](O)(c2cc3c(c(-c4ccc(F)cc4)n2)OC[C@@]3(N)C(F)(F)F)C(F)(F)F)cc1OC [Example 34] | > 200 nM | –
COc1cnc(C(=O)NC[C@](O)(c2cc3c(c(-c4ccc(F)cc4)n2)OC[C@@]3(N)C(F)(F)F)C(F)(F)F)cc1OC [Example 35] | > 200 nM | –
COc1cc(C(=O)NC[C@](O)(c2cc3c(c(-c4ccc(F)cc4)n2)OC[C@@]3(N)C(F)(F)F)C(F)(F)F)ccc1OCC(C)C [Example 36] | > 200 nM | –
COCCOc1ccc(C(=O)NC[C@](O)(c2cc3c(c(-c4ccc(F)cc4)n2)OC[C@@]3(N)C(F)(F)F)C(F)(F)F)cc1OC [Example 37] | > 200 nM | –
COc1cc(F)c(C(=O)NC[C@](O)(c2cc3c(c(-c4ccc(F)cc4)n2)OC[C@@]3(N)C(F)(F)F)C(F)(F)F)cc1OC [Example 38] | > 200 nM | –

SMILES | EC50 [1] | EC50 (HEp-2, 120 h)
COc1cc(C(=O)NC[C@](O)(c2cc3c(c(-c4ccc(F)cc4)n2)OC[C@@]3(N)C(F)(F)F)C(F)(F)F)cc(F)c1OC1CC1 [Example 39] | > 200 nM | –
COc1cc(C(=O)NC[C@](O)(c2cc3c(c(-c4ccc(F)cc4)n2)OC[C@@]3(N)C(F)(F)F)C(F)(F)F)nc2ccccc12 [Example 40] | > 200 nM | –
COc1cccc2cc(C(=O)NC[C@](O)(c3cc4c(c(-c5ccc(F)cc5)n3)OC[C@@]4(N)C(F)(F)F)C(F)(F)F)cnc12 [Example 41] | > 200 nM | –
COc1cc(C(=O)NC[C@](O)(c2cc3c(c(-c4ccc(F)cc4)n2)OC[C@@]3(N)C(F)(F)F)C(F)(F)F)ccc1C(F)(F)F [Example 42] | > 200 nM | –
COc1ccc2nc(C(=O)NC[C@](O)(c3cc4c(c(-c5ccc(F)cc5)n3)OC[C@@]4(N)C(F)(F)F)C(F)(F)F)cc(OC)c2c1 [Example 43] | > 200 nM | –
COC(=O)N[C@@]1(C(F)(F)F)COc2c1cc([C@@](O)(CNC(=O)c1ccc(OC3CC3)c(OC)c1)C(F)(F)F)nc2-c1ccc(F)cc1 [Example 44] | > 200 nM | –
CC(C)(C)S(=O)(=O)N[C@@]1(C(F)(F)F)COc2c1cc([C@@](C)(O)CNC(=O)c1cc(OC3CC3)c3ncccc3c1)nc2-c1ccc(F)cc1 [Example 45] | > 200 nM | –
COc1cc(C(=O)NC[C@](C)(O)c2cc3c(c(-c4ccc(F)cc4)n2)OC[C@@]3(NS(=O)(=O)C(C)(C)C)C(F)(F)F)cc2cccnc12 [Example 46] | > 200 nM | –
COC[C@](O)(CNC(=O)c1cc(OC2CC2)c2ncccc2c1)c1cc2c(c(-c3ccc(F)cc3)n1)OC[C@@]2(N)C(F)(F)F [Example 50, N—((S)-2-((R)-3-amino-7-(4-fluorophenyl)-3-(trifluoromethyl)-2,3-dihydrofuro[2,3-c]pyridin-5-yl)-2-hydroxy-3-methoxypropyl)-8-cyclopropoxyquinoline-6-carboxamide] | < 200 nM | –
Nc1nc2ccc(C(=O)NC[C@](O)(c3cc4c(c(-c5ccc(F)cc5)n3)OC[C@@]4(N)C(F)(F)F)C3CC3)cc2s1 [Example 52, 2-amino-N—((S)-2-((R)-3-amino-7-(4-fluorophenyl)-3-(trifluoromethyl)-2,3-dihydrofuro[2,3-c]pyridin-5-yl)-2-cyclopropyl-2-hydroxyethyl)benzo[d]thiazole-6-carboxamide] | < 200 nM | –
COc1cc(C(=O)NC[C@](O)(c2cc3c(c(-c4ccc(F)cc4)n2)OC[C@@]3(N)C(F)(F)F)C2CC2)cc2sc(N)nc12 [Example 53, 2-amino-N—((S)-2-((R)-3-amino-7-(4-fluorophenyl)-3-(trifluoromethyl)-2,3-dihydrofuro[2,3-c]pyridin-5-yl)-2-cyclopropyl-2-hydroxyethyl)-4-methoxybenzo[d]thiazole-6-carboxamide] | < 200 nM | –
Nc1nc2c(F)cc(C(=O)NC[C@](O)(c3cc4c(c(-c5ccc(F)cc5)n3)OC[C@@]4(N)C(F)(F)F)C3CC3)cc2s1 [Example 54, 2-amino-N—((S)-2-((R)-3-amino-7-(4-fluorophenyl)-3-(trifluoromethyl)-2,3-dihydrofuro[2,3-c]pyridin-5-yl)-2-cyclopropyl-2-hydroxyethyl)-4-fluorobenzo[d]thiazole-6-carboxamide] | < 200 nM | –
COc1cc(C(=O)NC[C@](O)(c2cc3c(c(-c4ccc(F)cc4)n2)OC[C@@]3(N)C(F)(F)F)C2CC2)cc2cn(C)nc12 [Example 55, N—((S)-2-((R)-3-amino-7-(4-fluorophenyl)-3-(trifluoromethyl)-2,3-dihydrofuro[2,3-c]pyridin-5-yl)-2-cyclopropyl-2-hydroxyethyl)-7-methoxy-2-methyl-2H-indazole-5-carboxamide] | < 200 nM | –
C[C@](O)(CNC(=O)c1cc(OC2CC2)c2ncccc2c1)c1cc2c(c(-c3ccc(F)c(Cl)c3)n1)OC[C@@]2(N)C(F)(F)F [Example 56] | > 200 nM | –
COc1cc(C(=O)NC[C@](O)(c2cc3c(c(-c4ccc(F)cc4)n2)OC[C@@]3(N)C(F)(F)F)C2COC2)ccc1OC1CC1 [Example 57] | > 200 nM | –
